# Patent US8765779B2, “Tricyclic derivatives and their pharmaceutical use and compositions” (Cephalon, Inc., priority 2009, dated 2014)
# Where a name gives a salt, the structure may show the parent alone.
row,Compound,melting point
1,"CN(C)C(=O)CC1(C)NCCc2c1oc1cc(S(=O)(=O)c3cccc(F)c3)ccc21 (single isomer, unassigned) (as salt: HCl) [Example 50, 2-{7-[(3-fluorophenyl)sulfonyl]-1-methyl-1,2,3,4-tetrahydro[1]benzofuro[2,3-c]pyridin-1-yl}-N,N-dimethylacetamide]",230 to 233 °C
2,"CC12CCNCC1Oc1ccc(S(=O)(=O)c3cc[n+]([O-])cc3)cc12 (racemic) (as salt: HCl) [Example 14, 4a-methyl-6-[(1-oxidopyridin-4-yl)sulfonyl]-1,2,3,4,4a,9a-hexahydro[1]benzofuro[2,3-c]pyridine]",207 to 210 °C
3,"CC1(C)NCCc2c1oc1cc(S(=O)(=O)c3cccc(Cl)c3)ccc21 (as salt: HCl) [Example 17, 7-[(3-chlorophenyl)sulfonyl]-1,1-dimethyl-1,2,3,4-tetrahydro[1]benzofuro[2,3-c]pyridine]",> 200 °C (dec.)
4,"CC1(C)CNC2(CCOC2)c2oc3cc(S(=O)(=O)c4cccc(F)c4)ccc3c21 (racemic) (as salt: HCl) [Example 46, 7-[(3-fluorophenyl)sulfonyl]-4,4-dimethyl-3,4,4′,5′-tetrahydro-2H-spiro[1-benzofuro[2,3-c]pyridine-1,3′-furan]]",263 to 268 °C
5,"CC1(C)NCCc2c1oc1ccc(S(=O)(=O)c3cccc(F)c3)cc21 (as salt: HCl) [Example 42, 6-[(3-fluorophenyl)sulfonyl]-1,1-dimethyl-1,2,3,4-tetrahydro[1]benzofuro[2,3-c]pyridine]",> 200 °C
6,CC12CCNCC1Oc1cc(S(=O)(=O)c3cccc(F)c3F)ccc12 (centres unmarked) (as salt: HCl) [Example 488],202 to 204 °C
7,"CC1(C)CNC2(CCOCC2)c2oc3cc(S(=O)(=O)c4cccc(F)c4)ccc3c21 (as salt: HCl) [Example 2, 7-[(3-fluorophenyl)sulfonyl]-4,4-dimethyl-2′,3,3′,4,5′,6′-hexahydro-2H-spiro[1-benzofuro[2,3-c]pyridine-1,4′-pyran]]",286 to 288 °C
8,"O=S(=O)(c1cccc(F)c1)c1ccc2c3c(oc2c1)C(CF)(CF)NCC3 [Example 35, 1,1-bis(fluoromethyl)-7-[(3-fluorophenyl)sulfonyl]-1,2,3,4-tetrahydro[1]benzofuro[2,3-c]pyridine]",154 to 157 °C
9,"CC12CCNCC1Oc1cc(S(=O)(=O)c3cccc(F)c3)ccc12 (racemic) (as salt: HCl) [Example 11, 7-[(3-fluorophenyl)sulfonyl]-4a-methyl-1,2,3,4,4a,9a-hexahydro[1]benzofuro[2,3-c]pyridine]",288 to 290 °C
10,"O=S(=O)(c1cccc(F)c1)c1ccc2c3c(oc2c1)C1(CCCC1)NCC3 (as salt: HCl) [Example 28, 7-[(3-fluorophenyl)sulfonyl]-3,4-dihydro-2H-spiro[1-benzofuro[2,3-c]pyridine-1,1′-cyclopentane]]",> 250 °C
11,O=S(=O)(c1ccc2c3c(oc2c1)C1(CCOCC1)NCC3)c1cccc(F)c1F (as salt: HCl) [Example 475],250 to 265 °C
12,COc1cc(OC)cc(S(=O)(=O)c2ccc3c(c2)OC2CNCCC32C)c1 (centres unmarked) (as salt: HCl) [Example 490],250 to 252 °C
13,"CC1(C)CNC(C2CCOCC2)c2oc3cc(S(=O)(=O)c4cccc(F)c4)ccc3c21 (racemic) (as salt: HCl) [Example 45, 7-[(3-fluorophenyl)sulfonyl]-4,4-dimethyl-1-(tetrahydro-2H-pyran-4-yl)-1,2,3,4-tetrahydro[1]benzofuro[2,3-c]pyridine]",248 to 252 °C
14,"CC12CCNCC1Oc1cc(S(=O)(=O)c3ccccn3)ccc12 (racemic) (as salt: HCl) [Example 8, 4a-methyl-7-(pyridin-2-ylsulfonyl)-1,2,3,4,4a,9a-hexahydro[1]benzofuro[2,3-c]pyridine]",282 to 283 °C
15,"O=S(=O)(c1cccc(F)c1)c1ccc2c3c(oc2c1)C1(CCC1)NCC3 (as salt: HCl) [Example 25, 7-[(3-fluorophenyl)sulfonyl]-3,4-dihydro-2H-spiro[1-benzofuro[2,3-c]pyridine-1,1′-cyclobutane]]",> 200 °C (dec.)
16,COc1cc(OCC2CCOCC2)cc(S(=O)(=O)c2ccc3c(c2)OC2CNCCC32)c1 (centres unmarked) (as salt: HCl) [Example 584],207 to 208 °C
17,"COc1ccccc1S(=O)(=O)c1ccc2c(c1)OC1CNCCC21C (racemic) (as salt: HCl) [Example 3, 7-[(2-methoxyphenyl)sulfonyl]-4a-methyl-1,2,3,4,4a,9a-hexahydro[1]benzofuro[2,3-c]pyridine]",222 to 224 °C
18,"CCC1(C)NCCc2c1oc1cc(S(=O)(=O)c3cccc(F)c3)ccc21 (racemic) (as salt: HCl) [Example 27, 1-ethyl-7-[(3-fluorophenyl)sulfonyl]-1-methyl-1,2,3,4-tetrahydro[1]benzofuro[2,3-c]pyridine]",> 300 °C
19,"CC(C)Oc1cccc(S(=O)(=O)c2ccc3c(c2)OC2CNCCC32C)c1 (single isomer, unassigned) (as salt: HCl) [Example 20, 4a-methyl-7-{[3-(propan-2-yloxy)phenyl]sulfonyl}-1,2,3,4,4a,9a-hexahydro[1]benzofuro[2,3-c]pyridine]",184 to 185 °C
20,"CCOCC1NCCc2c1oc1cc(S(=O)(=O)c3cccc(F)c3)ccc21 (racemic) (as salt: HCl) [Example 33, 1-(ethoxymethyl)-7-[(3-fluorophenyl)sulfonyl]-1,2,3,4-tetrahydro[1]benzofuro[2,3-c]pyridine]",230 to 250 °C (dec.)
21,"CC(C)Oc1cccc(S(=O)(=O)c2ccc3c4c(oc3c2)C(C)(C(F)F)NCC4)c1 (single isomer, unassigned) (as salt: HCl) [Example 34, 1-(difluoromethyl)-1-methyl-7-{[3-(propan-2-yloxy)phenyl]sulfonyl}-1,2,3,4-tetrahydro[1]benzofuro[2,3-c]pyridine]",219 to 222 °C
22,"CC12CCNCC1Oc1cc(S(=O)(=O)c3ncccn3)ccc12 (racemic) (as salt: HCl) [Example 9, 4a-methyl-7-(pyrimidin-2-ylsulfonyl)-1,2,3,4,4a,9a-hexahydro[1]benzofuro[2,3-c]pyridine]",232 to 234 °C
23,"CC1(C)NCCc2c1oc1cc(S(=O)(=O)c3ccc(F)c(Cl)c3)ccc21 (as salt: HCl) [Example 18, 7-[(3-chloro-4-fluorophenyl)sulfonyl]-1,1-dimethyl-1,2,3,4-tetrahydro[1]benzofuro[2,3-c]pyridine]",> 200 °C (dec.)
24,CC(C)Oc1cccc(S(=O)(=O)c2ccc3c(c2)OC2CNCCC32)c1F (centres unmarked) (as salt: HCl) [Example 483],221 to 224 °C
25,"Cc1cccc(S(=O)(=O)c2ccc3c4c(oc3c2)C(C)(C)NCC4)n1 (as salt: HCl) [Example 19, 1,1-dimethyl-7-[(6-methylpyridin-2-yl)sulfonyl]-1,2,3,4-tetrahydro[1]benzofuro[2,3-c]pyridine]",305 to 310 °C

# Second part, the compound after the results:
row,melting point,Compound
1,192 to 194 °C,O=S(=O)(c1cccc(OCC2CCCCO2)c1)c1ccc2c(c1)OC1CNCCC21 (centres unmarked) (as salt: HCl) [Example 553]
2,171 to 172 °C,O=S(=O)(c1cc(F)cc(OCc2ccccc2)c1)c1ccc2c(c1)OC1CNCCC21 (centres unmarked) (as salt: HCl) [Example 484]
3,188 to 190 °C,"O=S(=O)(c1cccc(OCC2CCOCC2)c1)c1ccc2c(c1)OC1CNCCC21 (centres unmarked) (as salt: HCl) [Example 570, 7-{[3-(tetrahydro-2H-pyran-4-ylmethoxy)phenyl]sulfonyl}-1,2,3,4,4a,9a-hexahydro[1]benzofuro[2,3-c]pyridine]"
4,167 to 171 °C,O=S(=O)(c1cccc(OCc2cccnc2)c1)c1ccc2c(c1)OC1CNCCC21 (centres unmarked) (as salt: HCl) [Example 559]
5,198 to 203 °C,O=S(=O)(c1cccc(Oc2ccccn2)c1)c1ccc2c(c1)OC1CNCCC21 (centres unmarked) (as salt: HCl) [Example 579]
6,182 to 185 °C,O=S(=O)(c1cccc(OCc2ccncc2)c1)c1ccc2c(c1)OC1CNCCC21 (centres unmarked) (as salt: HCl) [Example 561]
7,247 to 248 °C,COc1cccc(COc2cccc(S(=O)(=O)c3ccc4c(c3)OC3CNCCC43)c2)c1 (centres unmarked) (as salt: HCl) [Example 575]
8,194 to 195 °C,N#Cc1ccccc1COc1cccc(S(=O)(=O)c2ccc3c(c2)OC2CNCCC32)c1 (centres unmarked) (as salt: HCl) [Example 550]
9,199 to 201 °C,CCCCCOc1cccc(S(=O)(=O)c2ccc3c(c2)OC2CNCCC32)c1 (centres unmarked) (as salt: HCl) [Example 557]
10,205 to 208 °C,CC(C)Oc1cc(OCCO)cc(S(=O)(=O)c2ccc3c(c2)OC2CNCCC32)c1 (centres unmarked) (as salt: HCl) [Example 590]
11,164 to 166 °C,COCCCOc1cc(OC(C)C)cc(S(=O)(=O)c2ccc3c(c2)OC2CNCCC32)c1 (centres unmarked) (as salt: HCl) [Example 588]
12,210 to 213 °C,COCCOc1cccc(S(=O)(=O)c2ccc3c(c2)OC2CNCCC32)c1 (centres unmarked) (as salt: HCl) [Example 558]
13,210 to 213 °C,CCCOc1cccc(S(=O)(=O)c2ccc3c(c2)OC2CNCCC32)c1 (centres unmarked) (as salt: HCl) [Example 572]
14,179 to 182 °C,O=S(=O)(c1cccc(OCc2ccccn2)c1)c1ccc2c(c1)OC1CNCCC21 (centres unmarked) (as salt: HCl) [Example 562]
15,234 to 236 °C,O=S(=O)(c1cccc(Oc2cnccn2)c1)c1ccc2c(c1)OC1CNCCC21 (centres unmarked) (as salt: HCl) [Example 580]
16,186 to 188 °C,"O=S(=O)(c1cccc(OCC2CCOCC2)c1)c1ccc2c(c1)OC1CNCCC21 (centres unmarked) (as salt: HCl) [Example 581, 7-{[3-(tetrahydro-2H-pyran-4-ylmethoxy)phenyl]sulfonyl}-1,2,3,4,4a,9a-hexahydro[1]benzofuro[2,3-c]pyridine]"
17,206 to 209 °C,O=S(=O)(c1cccc(OCCCO)c1)c1ccc2c(c1)OC1CNCCC21 (centres unmarked) (as salt: HCl) [Example 568]
18,224 to 225 °C,COc1cc(OCC2CC2)cc(S(=O)(=O)c2ccc3c(c2)OC2CNCCC32)c1 (centres unmarked) (as salt: HCl) [Example 585]
19,244 to 245 °C,O=S(=O)(c1cccc(OCc2cnccn2)c1)c1ccc2c(c1)OC1CNCCC21 (centres unmarked) (as salt: HCl) [Example 567]
